# Values quoted from earlier work as cited in patent publication US7122627B2, “Lactam inhibitors of Hepatitis C virus NS3 protease” (Bristol-Myers Squibb Company, priority 1999, dated 2006).
# [ ]: non-standard residue; d: D form.
substance,measurement,setting,value
Ac-Asp-Glu-Dpa-Glu-Cha-Cys-OH,Ki,HCV protease; reported in Biochemistry 37 (1998),< 1000 nM
Ac-D[dD]IVPC-OH,effectiveness compared with all L isomer,HCV protease; Llinas-Brunet et al. Bioorg. Med. Chem. Lett. 8 1713-1718 (1998),more effective than its all “L” isomer
alpha interferon,patients in whom treatment is effective,"Hepatitis C virus (HCV); current treatment, monotherapy",15-20%
alpha interferon and ribavirin,patients with sustained efficacy,"Hepatitis C virus (HCV); combination therapy, Poynard et al. Lancet 1998",40%
